# What was measured:
# Experiment in all cases: Test C greenhouse herbicide test, pre- and postemergence
# Format in all cases: in vivo
# [1] = tested on: barnyardgrass (Echinochloa crus-galli)
# How it was run: (§1)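 Visual ratings on a 0 to 100 scale (0 = no effect, 100 = complete control) versus untreated controls, scored 13–15 d after treatment. Soil-applied preemergence to seeded loam/sand; foliar postemergence to 1- to 4-leaf plants (2–18 cm) in peat-vermiculite mix; compounds formulated in solvent plus surfactant.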
# [2] = tested on: blackgrass (Alopecurus myosuroides)
# How it was run: as §1
# corn (Zea mays) = tested on: corn (Zea mays)
# How it was run: as §1
# [3] = tested on: crabgrass, large (large crabgrass, Digitaria sanguinalis)
# How it was run: as §1
# [4] = tested on: foxtail, giant (giant foxtail, Setaria faberii)
# How it was run: as §1
# [5] = tested on: galium (catchweed bedstraw, Galium aparine)
# How it was run: as §1
# [6] = tested on: johnsongrass (Sorghum halepense)
# How it was run: as §1
# [7] = tested on: lambsquarters (Chenopodium album)
# How it was run: as §1
# [8] = tested on: morningglory (Ipomoea coccinea)
# How it was run: as §1
# [9] = tested on: nutsedge, yellow (yellow nutsedge, Cyperus esculentus)
# How it was run: as §1
# [10] = tested on: oilseed rape (Brassica napus)
# How it was run: as §1
# [11] = tested on: pigweed (Amaranthus retroflexus)
# How it was run: as §1
# [12] = tested on: ragweed (common ragweed, Ambrosia elatior)
# How it was run: as §1
# [13] = tested on: ryegrass, Italian (Italian ryegrass, Lolium multiflorum)
# How it was run: as §1
# [14] = tested on: velvetleaf (Abutilon theophrasti)
# How it was run: as §1
# [15] = tested on: waterhemp (common waterhemp, Amaranthus rudis)
# How it was run: as §1
# [16] = Postemergence, 31 g ai/ha, 0 to 100 scale (0 no effect, 100 complete control)
# [17] = Postemergence, 125 g ai/ha, scale 0 to 100, 0 is no effect, 100 is complete control
# [18] = Postemergence, 250 g ai/ha, scale 0 to 100, 0 no effect, 100 complete control, 13 to 15 d
# [19] = Preemergence, 31 g ai/ha, scale 0 to 100, 0 is no effect, 100 is complete control
# [20] = Preemergence, 62 g ai/ha, scale 0 to 100, 0 is no effect, 100 is complete control
# [21] = Preemergence, 125 g ai/ha, scale 0 to 100, 0 is no effect, 100 is complete control
# [22] = Preemergence, 250 g ai/ha, scale 0 to 100 (0 no effect, 100 complete control)
# [23] = postemergence, 62 g ai/ha, scale 0 to 100, 0 no effect, 100 complete control
smiles,measurement,setting,value
CC(=O)Oc1c(C)nn(C)c(=O)c1-c1c(C)sc2ccc(C)cc12 [Compound 25],Barnyardgrass plant response rating,[1]; [16],15
same,"Plant response rating, Barnyardgrass",[1]; [17],20
same,"Plant response rating, Barnyardgrass",[1]; [18],25
same,"Plant response rating, Barnyardgrass",[1]; [19],0
same,"Plant response rating, Barnyardgrass",[1]; [20],30
same,"Plant response rating, Barnyardgrass",[1]; [21],70
same,Barnyardgrass plant response rating,[1]; [22],85
same,Barnyardgrass plant response rating,[1]; [23],20
same,Blackgrass plant response rating,[2]; [16],30
same,"Plant response rating, Blackgrass",[2]; [17],60
same,"Plant response rating, Blackgrass",[2]; [18],80
same,"Plant response rating, Blackgrass",[2]; [19],85
same,"Plant response rating, Blackgrass",[2]; [20],85
same,"Plant response rating, Blackgrass",[2]; [21],90
same,Blackgrass plant response rating,[2]; [22],90
same,Blackgrass plant response rating,[2]; [23],55
same,Corn plant response rating,corn (Zea mays); [16],5
same,"Plant response rating, Corn",corn (Zea mays); [17],5
same,"Plant response rating, Corn",corn (Zea mays); [18],10
same,"Plant response rating, Corn",corn (Zea mays); [19],0
same,"Plant response rating, Corn",corn (Zea mays); [20],0
same,"Plant response rating, Corn",corn (Zea mays); [21],0
same,Corn plant response rating,corn (Zea mays); [22],10
same,Corn plant response rating,corn (Zea mays); [23],5
same,"Crabgrass, Large plant response rating",[3]; [16],5
same,"Plant response rating, Crabgrass, Large",[3]; [17],20
same,"Plant response rating, Crabgrass, Large",[3]; [18],20
same,"Plant response rating, Crabgrass, Large",[3]; [19],70
same,"Plant response rating, Crabgrass, Large",[3]; [20],75
same,"Plant response rating, Crabgrass, Large",[3]; [21],95
same,"Crabgrass, Large plant response rating",[3]; [22],90
same,"Crabgrass, Large plant response rating",[3]; [23],15
same,"Foxtail, Giant plant response rating",[4]; [16],35
same,"Plant response rating, Foxtail, Giant",[4]; [17],70
same,"Plant response rating, Foxtail, Giant",[4]; [18],85
same,"Plant response rating, Foxtail, Giant",[4]; [19],75
same,"Plant response rating, Foxtail, Giant",[4]; [20],85
same,"Plant response rating, Foxtail, Giant",[4]; [21],90
same,"Foxtail, Giant plant response rating",[4]; [22],100
same,"Foxtail, Giant plant response rating",[4]; [23],35
same,Galium plant response rating,[5]; [16],90
same,"Plant response rating, Galium",[5]; [17],100
same,"Plant response rating, Galium",[5]; [18],95
same,"Plant response rating, Galium",[5]; [19],90
same,"Plant response rating, Galium",[5]; [20],95
same,"Plant response rating, Galium",[5]; [21],95
same,Galium plant response rating,[5]; [22],98
same,Galium plant response rating,[5]; [23],95
same,Johnsongrass plant response rating,[6]; [16],0
same,"Plant response rating, Johnsongrass",[6]; [17],5
same,"Plant response rating, Johnsongrass",[6]; [18],10
same,"Plant response rating, Johnsongrass",[6]; [19],0
same,"Plant response rating, Johnsongrass",[6]; [20],0
same,"Plant response rating, Johnsongrass",[6]; [21],5
same,Johnsongrass plant response rating,[6]; [22],20
same,Johnsongrass plant response rating,[6]; [23],5
same,Lambsquarters plant response rating,[7]; [16],90
same,"Plant response rating, Lambsquarters",[7]; [17],98
same,"Plant response rating, Lambsquarters",[7]; [18],98
same,"Plant response rating, Lambsquarters",[7]; [19],80
same,"Plant response rating, Lambsquarters",[7]; [20],85
same,"Plant response rating, Lambsquarters",[7]; [21],85
same,Lambsquarters plant response rating,[7]; [22],95
same,Lambsquarters plant response rating,[7]; [23],95
same,Morningglory plant response rating,[8]; [16],100
same,"Plant response rating, Morningglory",[8]; [17],100
same,"Plant response rating, Morningglory",[8]; [18],100
same,"Plant response rating, Morningglory",[8]; [19],85
same,"Plant response rating, Morningglory",[8]; [20],95
same,"Plant response rating, Morningglory",[8]; [21],95
same,Morningglory plant response rating,[8]; [22],100
same,Morningglory plant response rating,[8]; [23],100
same,"Nutsedge, Yellow plant response rating",[9]; [16],65
same,"Plant response rating, Nutsedge, Yellow",[9]; [17],90
same,"Plant response rating, Nutsedge, Yellow",[9]; [18],90
same,"Plant response rating, Nutsedge, Yellow",[9]; [19],40
same,"Plant response rating, Nutsedge, Yellow",[9]; [20],30
same,"Plant response rating, Nutsedge, Yellow",[9]; [21],70
same,"Nutsedge, Yellow plant response rating",[9]; [22],80
same,"Nutsedge, Yellow plant response rating",[9]; [23],75
same,Oilseed Rape plant response rating,[10]; [16],0
same,"Plant response rating, Oilseed Rape",[10]; [17],20
same,"Plant response rating, Oilseed Rape",[10]; [18],5
same,"Plant response rating, Oilseed Rape",[10]; [19],0
same,"Plant response rating, Oilseed Rape",[10]; [20],0
same,"Plant response rating, Oilseed Rape",[10]; [21],5
same,Oilseed Rape plant response rating,[10]; [22],35
same,Oilseed Rape plant response rating,[10]; [23],0
same,Pigweed plant response rating,[11]; [16],90
same,"Plant response rating, Pigweed",[11]; [17],95
same,"Plant response rating, Pigweed",[11]; [18],98
same,"Plant response rating, Pigweed",[11]; [19],100
same,"Plant response rating, Pigweed",[11]; [20],100
same,"Plant response rating, Pigweed",[11]; [21],100
same,Pigweed plant response rating,[11]; [22],100
same,Pigweed plant response rating,[11]; [23],90
same,Ragweed plant response rating,[12]; [16],90
same,"Plant response rating, Ragweed",[12]; [17],95
same,"Plant response rating, Ragweed",[12]; [18],95
same,"Plant response rating, Ragweed",[12]; [19],80
same,"Plant response rating, Ragweed",[12]; [20],95
same,"Plant response rating, Ragweed",[12]; [21],98
same,Ragweed plant response rating,[12]; [22],95
same,Ragweed plant response rating,[12]; [23],85
same,"Ryegrass, Italian plant response rating",[13]; [16],70
same,"Plant response rating, Ryegrass, Italian",[13]; [17],90
same,"Plant response rating, Ryegrass, Italian",[13]; [18],95
same,"Plant response rating, Ryegrass, Italian",[13]; [19],90
same,"Plant response rating, Ryegrass, Italian",[13]; [20],95
same,"Plant response rating, Ryegrass, Italian",[13]; [21],95
same,"Ryegrass, Italian plant response rating",[13]; [22],95
same,"Ryegrass, Italian plant response rating",[13]; [23],85
same,Velvetleaf plant response rating,[14]; [16],70
same,"Plant response rating, Velvetleaf",[14]; [17],85
same,"Plant response rating, Velvetleaf",[14]; [18],98
same,"Plant response rating, Velvetleaf",[14]; [20],85
same,"Plant response rating, Velvetleaf",[14]; [21],90
same,Velvetleaf plant response rating,[14]; [22],98
same,Velvetleaf plant response rating,[14]; [23],80
same,Waterhemp plant response rating,[15]; [16],75
same,"Plant response rating, Waterhemp",[15]; [17],95
same,"Plant response rating, Waterhemp",[15]; [18],98
same,"Plant response rating, Waterhemp",[15]; [20],100
same,"Plant response rating, Waterhemp",[15]; [21],100
same,Waterhemp plant response rating,[15]; [22],100
same,Waterhemp plant response rating,[15]; [23],95

# — patent US10597388B2, “Pyridazinone herbicides” (FMC CORPORATION, priority 2014, dated 2020)
